# Numbered stars: 1 amine (or outer) side, 2 acyl side, 3 side chain; on linkers, the order of the positions; unused ones are H or OH. Bridge positions count the residues as written; N and C are the ends. Square brackets hold non-standard residues; d marks the D form. Peptide text beside a SMILES is read from it. I, II: the chains in the order shown. Actinocin(9to1) = Cc1c2oc3c(C)ccc(C(=O)[*:1])c3nc-2c(C(=O)[*:2])c(N)c1=O; NMeV = CN[C@H](C(=O)O)C(C)C; Sar = CNCC(=O)O
# What was measured:
# MEF Bax/Bak KO cells = experiment: Apoptosis (Annexin V/PI flow cytometry) in MEF cells; type: cell-based; settings: all the concentrations tested
# Procedure: (§1) Cell Growth, Cell Death, and Apoptosis: Cell growth inhibition by (−)-gossypol was determined in a water-soluble tetrazolium (WST)-based assay, as described previously (Shangary et al., Proc. Natl. Acad. Sci. USA 105:3933 (2008)). Cell viability was determined by trypan blue due exclusion as described (Shangary et al., Proc. Natl. Acad. Sci. USA 105:3933 (2008)). Experiments were done in triplicate. To examine apoptosis, cells were stained with Annexin V and PI and analyzed by flow cytometery using an Annexin V-FITC staining kit (Roche Applied Science, Indianapolis, Ind.) according to manufacturer's instructions. Briefly, cells were treated and collected by centrifugation, washed with PBS once and then stained with annexinV-FITC and PI for 15 min at room temperature in the dark. Stained cells were analyzed in a FACS caliber flow cytometer. AnnexinV positive cells are considered as apoptotic cells.
# [1] = test system: Bcl-2 family proteins in 2LMP cells; experiment: Western blot of whole cell lysates; type: cell-based, human; settings: cotreatment with (−)-gossypol (FIG. 26)
# Procedure: (§2) Western blot assay: Proteins were harvested in RIPA buffer, then electrophoresed on 4-20% gradient SDS-PAGE gels (Invitrogen, Grand Island, N.Y.) and transferred to PVDF membranes. The membranes were blocked in 5% milk and then incubated with specific primary antibody, followed by secondary antibody. The signals were visualized with the chemiluminescent HRP antibody detection reagent (Deville Scientific, Metuchen, N.J.).
# [2] = test system: Bcl-2 family proteins in PC-3 cells; experiment: Western blot of whole cell lysates; type: cell-based, human; settings: cotreatment with (−)-gossypol (FIG. 26)
# Procedure: as §2
# [3] = test system: Noxa, Puma and Mcl-1 RNAs in 2LMP, PC-3, MDA-MB-436 and DU145 cells; experiment: Taqman real-time PCR with actinomycin D cotreatment; type: cell-based, human; settings: cotreatment with (−)-gossypol 10 μm
# Procedure: Real-Time PCR: Total RNA was extracted by RNA miniprep kit (Sigma) from cells treated with or without of (−)-gossypol. cDNA was synthesized from 2 μg of RNA using cDNA reverse transcription kits (Applied Biosystems). Next, Taqman gene expression assays were performed using Noxa (Hs00560402_ml), Puma (Hs00248075_ml), Mcl-1 (Hs00172036_ml) gene specific primers/probe sets for real-time PCR in a ABI7900HT PCR machine. GAPDH (Hs99999905_ml) was used for normalization. Relative quantitation of mRNA was calculated by comparative cycle threshold (Ct) method.
# 2LMP cells = experiment: Cell death by trypan blue dye exclusion; type: cell-based, human; settings: c-Myc siRNA, 24 h
# Procedure: as §1
compound,measurement,setting,value
"COc1cc([C@@H]2c3cc4c(cc3[C@@H](O[C@@H]3O[C@@H]5CO[C@@H](C)O[C@H]5[C@H](O)[C@H]3O)[C@H]3COC(=O)[C@H]23)OCO4)cc(OC)c1O [VP-16, 4′-demethylepipodophyllotoxin 9-[4,6-0-(R)-ethylidene-(beta)-D-glucopyranoside], reference compound]",induction of cell death in the MEF Bax/Bak double knock-out,MEF Bax/Bak KO cells,blocked
"Cc1c2oc3c(C)ccc(C(=O)N[C@@H]4C(=O)N[C@H](C(C)C)C(=O)N5CCC[C@H]5C(=O)N(C)CC(=O)N(C)[C@@H](C(C)C)C(=O)O[C@@H]4C)c3nc-2c(C(=O)N[C@@H]2C(=O)N[C@H](C(C)C)C(=O)N3CCC[C@H]3C(=O)N(C)CC(=O)N(C)[C@@H](C(C)C)C(=O)O[C@@H]2C)c(N)c1=O [actinomycin D, reference compound] (I: T[dV]P[Sar][NMeV] / II: T[dV]P[Sar][NMeV]; ester I:1-I:C, II:1-II:C; linker I:N-II:N via Actinocin(9to1))",(−)-gossypol-upregulated Noxa and Puma proteins under cotreatment,[1],significantly blocked
same,(−)-gossypol-upregulated Noxa and Puma proteins under cotreatment,[2],significantly blocked
same,"upregulation of Noxa, Puma and Mcl-1 RNAs by (−)-gossypol under cotreatment",[3],completely blocks
"CC(C)C[C@H](NC(=O)[C@H](Cc1ccccc1)NC(=O)c1cnccn1)B(O)O [bortezomib, reference compound]",cell death upon knock-down of c-Myc,2LMP cells,blocked cell death

# From patent publication US20120302629A1, “BIOMARKERS FOR GOSSYPOL CHEMOTHERAPY AND METHODS OF TREATING DISEASE” (THE REGENTS OF THE UNIVERSITY OF MICHIGAN, priority 2009, published 2012)
